Laboratory results from patent US20240166649A1, “DIHYDROPYRIMIDINE COMPOUND, PREPARATION METHOD THEREFOR AND APPLICATION THEREOF” (Shanghai Visonpharma Co., Ltd., priority 2021, published 2024).

system: HBV (hepatitis B virus) in HepG2.2.15 cells; experiment: Cell-based anti-viral activity assay (HBV DNA in supernatant by quantitative PCR); conditions: 120 h, anti-HBV activity, HepG2.2.15 cells, 5 days, read-out: EC50 (HepG2.2.15)
Experimental: Cell-Based Anti-Viral Activity Assay
The Invention determined the anti-HBV (hepatitis B virus) activity of compounds in HepG2.2.15 cells (Table 1).
HepG2.2.15 is a cell line stably transfected with the HBV genome. HepG2.2.15 cells were cultured in DMEM (1X) with 10% fetal bovine serum (Corning), 100 U penicillin (Gibico), 100 μg/mL streptomycin (Gibico), 250 μg/mL geneticin (Gibco) and GlutaMAXTM-I medium (Invitrogen).
HepG2.2.15 cells were seeded into 96-well plates (4×10^4 cells in 100 μL of medium per well) and incubated overnight at 37° C. The test compounds were weighed and prepared as 10 mM stock solution with DMSO. The stock solutions of the compounds were diluted by a gradient of 3.16 times with DMSO, and then diluted by a gradient of 3.16 times with medium for 50 times. Finally, the diluted compound solutions were added to the cell plate with a total volume of 200 μL and the final DMSO concentration was 1%. The 96-well culture plates loaded with drugs were transferred to an incubator at 37° C. for 5 days. […] nucleic acid releasing agent was added to 96-well PCR reaction plate, and 2 μL of cell supernatant or HBV quantitative standards were added to the corresponding Wells. Centrifuged the plates to fully mix, and incubated at room temperature for 10 min to fully release nucleic acid. Quantified HBV DNA content by fluorescent quantitative PCR (CFX Connect Real-Time System) using Sanxiang Bio hepatitis B virus fluorescent quantitative diagnostic kit.
The standard curve was established by taking the logarithm of the copy number (IU/ml) of the HBV standard sample (log 10) as the abscordinate and the corresponding CT value as the ordinate. The copy number of the sample was calculated according to the corresponding CT of the positive sample and the standard curve, and the percentage of inhibition rate was calculated as follows: • % Inhibition=100-100*(sample HBV copy number−high concentration reference compound column HBV copy number)/DMSO column HBV copy number−high concentration reference compound column HBV copy number).

Point of comparison: `CCOC(=O)C1=C(CN2CCN3C(=O)N(C45CC(COC)(C4)C5)C[C@@H]3C2)NC(c2nccs2)=N[C@H]1c1cccc(F)c1C` [Compound 3, Ethyl (S)-4-(3-Fluoro-2-Methylphenyl)-6-(((S)-2-(3-(Methoxymethyl)Bicyclo[1.1.1]Pentan-1-Yl)-3-Oxohexahydroimidazo[1,5-a]Pyrazin-7(1H)-Yl)Methyl)-2-(Thiazol-2-Yl)-1,4-Dihydropyrimidine-5-Carboxylate], EC50 4 nM. Against it:
- CCOC(=O)C1=C(CN2CCN3C(=O)N(C45CCC(CC(=O)O)(CC4)C5)C[C@@H]3C2)NC(c2nccs2)=N[C@H]1c1ccc(F)cc1Cl [Compound 65, 2-(4-((S)-7-(((R)-6-(2-Chloro-4-Fluorophenyl)-5-(Ethoxycarbonyl)-2-(Thiazol-2-Yl)-3,6-Dihydropyrimidin-4-Yl)Methyl)-3-Oxohexahydroimidazo[1,5-a]Pyrazin-2(3H)-Yl)Bicyclo[2.2.1]Heptan-1-Yl)Acetic Acid] — 10-fold higher, 42 nM
- CCOC(=O)C1=C(CN2CCN3C(=O)N(C45CC(C(O)C(=O)O)(C4)C5)C[C@@H]3C2)NC(c2nccs2)=N[C@H]1c1cccc(F)c1C (stereo partly drawn) [Compound 50, 2-(3-((S)-7-(((S)-5-(Ethoxycarbonyl)-6-(3-Fluoro-2-Methylphenyl)-2-(Thiazol-2-Yl)-3,6-Dihydropyrimidin-4-Yl)Methyl)-3-Oxohexahydroimidazo[1,5-a]Pyrazin-2(3H)-Yl)Bicyclo[1.1.1]Pentan-1-Yl)-2-Hydroxyacetic Acid] — within 1.5-fold, 3 nM
- CCOC(=O)C1=C(CN2CCN3C(=O)N(C45CC(C(C)C(=O)O)(C4)C5)C[C@@H]3C2)NC(c2nccs2)=N[C@H]1c1cccc(F)c1C (stereo partly drawn) [Compound 30, 2-(3-((S)-7-(((S)-5-(Ethoxycarbonyl)-6-(3-Fluoro-2-Methylphenyl)-2-(Thiazol-2-Yl)-3,6-Dihydropyrimidin-4-Yl)Methyl)-3-Oxohexahydroimidazo[1,5-a]Pyrazin-2(3H)-Yl)Bicyclo[1.1.1]Pentan-1-Yl)Propanoic Acid] — 2.8-fold higher, 11 nM
- CCOC(=O)C1=C(CN2CCN3C(=O)N(C45CC(CC(=O)O)(C4)C5)C[C@@H]3C2)NC(c2nccs2)=N[C@H]1c1cccc(F)c1Cl [Compound 34, 2-(3-((S)-7-(((R)-6-(2-Chloro-3-Fluorophenyl)-5-(Ethoxycarbonyl)-2-(Thiazol-2-Yl)-3,6-Dihydropyrimidin-4-Yl)Methyl)-3-Oxohexahydroimidazo[1,5-a]Pyrazin-2(3H)-Yl)Bicyclo[1.1.1]Pentan-1-Yl)Acetic Acid] — 5.5-fold higher, 22 nM
- CCOC(=O)C1=C(CN2CCN3C(=O)N(C45CC(CNS(N)(=O)=O)(C4)C5)C[C@@H]3C2)NC(c2nccs2)=N[C@H]1c1cccc(F)c1C [Compound 24, Ethyl (S)-4-(3-Fluoro-2-Methylphenyl)-6-(((S)-3-Oxo-2-(3-((Sulfamoylamino)Methyl)Bicyclo[1.1.1]Pentan-1-Yl)Hexahydroimidazo[1,5-a]Pyrazin-7(1H)-Yl)Methyl)-2-(Thiazol-2-Yl)-1,4-Dihydropyrimidine-5-Carboxylate] — 2.2-fold higher, 9 nM
- CCOC(=O)C1=C(CN2CCN3C(=S)N(C45CC(C(=O)O)(C4)C5)C[C@@H]3C2)NC(c2nccs2)=N[C@H]1c1cccc(F)c1C [Compound 32, 3-((S)-7-(((S)-5-(Ethoxycarbonyl)-6-(3-Fluoro-2-Methylphenyl)-2-(Thiazol-2-Yl)-3,6-Dihydropyrimidin-4-Yl)Methyl)-3-Thioxohexahydroimidazo[1,5-a]Pyrazin-2(3H)-Yl)Bicyclo[1.1.1]Pentane-1-Carb Oxylic Acid] — 7.5-fold higher, 30 nM

same assay, conditions: HepG2.2.15, 120 h, read-out: EC50 (HepG2.2.15, nM)

With `CCOC(=O)C1=C(CN2CCN3C(=O)N(C45CC(CP(=O)(OCC)OCC)(C4)C5)C[C@@H]3C2)NC(c2nccs2)=N[C@H]1c1cccc(F)c1C` [Compound 16, Ethyl (S)-6-(((S)-2-(3-((Diethoxyphosphoryl)Methyl)Bicyclo[1.1.1]Pentan-1-Yl)-3-Oxohexahydroimidazo[1,5-a]Pyrazin-7(1H)-Yl)Methyl)-4-(3-Fluoro-2-Methylphenyl)-2-(Thiazol-2-Yl)-1,4-Dihydropyrimidine-5-Carboxylate] the EC50 was 9 nM.
